Broadly, the Kd is the free concentration of one partner at which half of the binding sites on the other are occupied at equilibrium, for simple one-to-one binding. Low values mean a tighter complex, high ones a looser complex. The IC50 is the concentration needed to halve the response being measured. A higher IC50 goes with a need for much substance. The term stoichiometry N denotes the number of molecules, sites or subunits per partner or assembly.

The target in assay [1] is T1, transglutaminase 2 (TGase 2) (Homo sapiens, UniProt P21980).
T1 construct: gene TGM2; recombinant human TGase 2, polyhistidine-tagged
T1 sequence (P21980 2-687): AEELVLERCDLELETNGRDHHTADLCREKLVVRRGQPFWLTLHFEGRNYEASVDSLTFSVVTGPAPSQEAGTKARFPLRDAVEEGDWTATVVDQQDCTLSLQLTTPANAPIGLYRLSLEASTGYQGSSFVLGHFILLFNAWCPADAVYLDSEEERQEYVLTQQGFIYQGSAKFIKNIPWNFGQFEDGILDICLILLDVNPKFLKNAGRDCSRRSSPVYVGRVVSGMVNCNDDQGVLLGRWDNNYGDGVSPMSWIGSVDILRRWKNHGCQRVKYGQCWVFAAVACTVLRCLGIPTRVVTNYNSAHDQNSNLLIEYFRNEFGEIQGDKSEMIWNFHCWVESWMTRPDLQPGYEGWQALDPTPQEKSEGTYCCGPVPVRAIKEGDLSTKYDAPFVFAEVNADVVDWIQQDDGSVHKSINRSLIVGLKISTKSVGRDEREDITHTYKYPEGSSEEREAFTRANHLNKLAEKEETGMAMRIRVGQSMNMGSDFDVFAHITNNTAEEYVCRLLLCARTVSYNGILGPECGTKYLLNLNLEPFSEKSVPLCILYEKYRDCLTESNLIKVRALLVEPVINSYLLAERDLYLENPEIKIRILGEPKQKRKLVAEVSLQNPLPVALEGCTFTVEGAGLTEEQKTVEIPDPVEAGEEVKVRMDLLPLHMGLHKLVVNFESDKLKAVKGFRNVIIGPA
Briefly: SPR (ProteOn XPR36); MS peptide masking supports the site. The assay is classed as binding.

A further assay deals with T2, guinea pig liver TGase 2 (UniProt P08587).
T2 construct: gene TGM2
T2 sequence (P08587 2-690): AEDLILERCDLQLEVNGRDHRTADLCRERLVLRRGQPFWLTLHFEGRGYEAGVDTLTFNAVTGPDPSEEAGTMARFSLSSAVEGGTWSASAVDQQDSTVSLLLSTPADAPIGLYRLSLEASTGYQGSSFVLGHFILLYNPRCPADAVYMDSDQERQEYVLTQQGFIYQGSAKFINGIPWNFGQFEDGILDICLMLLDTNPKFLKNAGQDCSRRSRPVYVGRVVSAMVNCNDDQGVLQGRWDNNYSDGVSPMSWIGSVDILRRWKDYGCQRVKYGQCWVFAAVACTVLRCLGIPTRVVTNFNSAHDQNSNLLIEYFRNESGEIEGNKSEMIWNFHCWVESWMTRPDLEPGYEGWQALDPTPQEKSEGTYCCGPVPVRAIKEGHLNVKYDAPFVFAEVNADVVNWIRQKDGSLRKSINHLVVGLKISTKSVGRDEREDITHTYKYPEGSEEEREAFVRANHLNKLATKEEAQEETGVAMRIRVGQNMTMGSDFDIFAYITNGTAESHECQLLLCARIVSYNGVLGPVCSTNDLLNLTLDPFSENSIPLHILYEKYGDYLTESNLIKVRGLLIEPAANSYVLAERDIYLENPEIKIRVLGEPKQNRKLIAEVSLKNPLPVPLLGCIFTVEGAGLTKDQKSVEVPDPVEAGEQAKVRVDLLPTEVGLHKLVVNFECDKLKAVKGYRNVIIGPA
Briefly: succinylated casein / […]-putrescine incorporation assay. Type of assay: biochemical, Cavia cutleri.

Assay [2] has as its target T3, TGase 2 (as run on native gels), P21980.
T3 chain: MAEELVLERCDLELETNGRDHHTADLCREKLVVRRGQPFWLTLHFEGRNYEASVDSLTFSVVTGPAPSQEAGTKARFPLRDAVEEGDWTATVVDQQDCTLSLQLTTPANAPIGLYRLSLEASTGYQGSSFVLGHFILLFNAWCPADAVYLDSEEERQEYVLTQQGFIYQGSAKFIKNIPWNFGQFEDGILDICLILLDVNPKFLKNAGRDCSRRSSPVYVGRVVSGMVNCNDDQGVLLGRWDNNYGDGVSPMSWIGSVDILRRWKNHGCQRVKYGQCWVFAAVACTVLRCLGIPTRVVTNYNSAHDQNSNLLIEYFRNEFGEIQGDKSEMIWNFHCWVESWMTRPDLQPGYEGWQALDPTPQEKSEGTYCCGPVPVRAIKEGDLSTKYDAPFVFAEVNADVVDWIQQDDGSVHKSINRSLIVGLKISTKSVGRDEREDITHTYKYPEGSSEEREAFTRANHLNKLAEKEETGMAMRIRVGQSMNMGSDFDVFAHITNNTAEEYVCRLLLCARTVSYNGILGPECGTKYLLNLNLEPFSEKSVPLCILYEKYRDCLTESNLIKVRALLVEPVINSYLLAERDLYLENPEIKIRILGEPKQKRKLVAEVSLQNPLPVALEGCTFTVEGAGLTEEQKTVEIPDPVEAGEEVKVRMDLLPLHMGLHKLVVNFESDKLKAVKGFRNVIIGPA
Briefly: native gel or EMSA; TGase 2 incubated with streptonigrin or GTP, 37 °C; native gel, immunoblot of TGase 2; monomer to dimer. The following applies: remark: other sources report otherwise. For orientation: A gel shift assay detects complexes by their altered migration in electrophoresis.

`COC1=C(N)C(=O)c2nc(-c3nc(C(=O)O)c(C)c(-c4ccc(OC)c(OC)c4O)c3N)ccc2C1=O` [streptonigrin] registered a dissociation constant (Kd) in assay [1] of approximately 700 nM. In addition, half-maximal inhibition against guinea pig liver TGase 2 (IC50) required 1700 nM.

B1: TGase 2 (as run on native gels), P21980 1-687 (enzyme)
chain: MAEELVLERCDLELETNGRDHHTADLCREKLVVRRGQPFWLTLHFEGRNYEASVDSLTFSVVTGPAPSQEAGTKARFPLRDAVEEGDWTATVVDQQDCTLSLQLTTPANAPIGLYRLSLEASTGYQGSSFVLGHFILLFNAWCPADAVYLDSEEERQEYVLTQQGFIYQGSAKFIKNIPWNFGQFEDGILDICLILLDVNPKFLKNAGRDCSRRSSPVYVGRVVSGMVNCNDDQGVLLGRWDNNYGDGVSPMSWIGSVDILRRWKNHGCQRVKYGQCWVFAAVACTVLRCLGIPTRVVTNYNSAHDQNSNLLIEYFRNEFGEIQGDKSEMIWNFHCWVESWMTRPDLQPGYEGWQALDPTPQEKSEGTYCCGPVPVRAIKEGDLSTKYDAPFVFAEVNADVVDWIQQDDGSVHKSINRSLIVGLKISTKSVGRDEREDITHTYKYPEGSSEEREAFTRANHLNKLAEKEETGMAMRIRVGQSMNMGSDFDVFAHITNNTAEEYVCRLLLCARTVSYNGILGPECGTKYLLNLNLEPFSEKSVPLCILYEKYRDCLTESNLIKVRALLVEPVINSYLLAERDLYLENPEIKIRILGEPKQKRKLVAEVSLQNPLPVALEGCTFTVEGAGLTEEQKTVEIPDPVEAGEEVKVRMDLLPLHMGLHKLVVNFESDKLKAVKGFRNVIIGPA
In assay [2], B1 registered a fold increase in the density of the dimer band after streptonigrin treatment of 2.4 fold and a stoichiometry N of 2.

The record behind these values is paper PMC6267221, “Renal Cell Carcinoma Is Abrogated by p53 Stabilization through Transglutaminase 2 Inhibition” (Cancers, 2018).
